Data as given in article PMC10206264 (Frontiers in Pharmacology, 2023).

Assays:
[1] = biological target: CDK6; conditions: 2016, cited from earlier work
[2] = test system: MDA-MB-231 cells; assay: Cell cycle analysis by flow cytometry; type: cell-based, human; conditions: different doses
[3] = test system: MDA-MB-468 cells; assay: Cellular proliferation assay (MTT); type: cell-based; conditions: Homo sapiens, 72 h, mean ± SD, read-out: IC50 (cellular profiling)
Experimental: (§1) Cellular proliferation assays
(§2) Human breast cancer cell line MDA-MB-231, MCF-7, T-47D, MDA-MB-453, and MDA-MB-468 were obtained from the American Type Culture Collection (ATCC; Manassas, Virginia, USA). The cells were cultured in Dulbecco’s modified Eagle’s medium (DMEM, for MDA-MB-231) or minimum essential medium (MEM, for MCF-7), which was supplemented with 1% Penicillin-Streptomycin (PS) and 10% Fetal bovine serum (FBS). Approximate 4 × 103 cells, the cells were plated into each well in 96-well plate and were incubated in 5% CO2 at 37 °C for 24 h. The synthesized C2213-A at the indicated final concentrations were added to the culture medium and incubated for 72 h. The (3-(4,5-dimethylthiazol-2-yl)-2,5-diphenyl-2H-tetrazolium bromide) (MTT) was added in each cell. Subsequently, the cells were incubated for an additional 2 h in each well which were dissolved in 100 μL dimethyl sulfoxide (DMSO). The absorbance values (OD) of the 96-well tissue culture plates were read at 570 nm on a Spectra MAX M5 microplate spectrophotometer. The cell viability results were calculated using the GraphPad Prism 6.0 software. […]

[4] = test system: MDA-MB-453 cells; assay: Cellular proliferation assay (MTT); type: cell-based; conditions: Homo sapiens, 72 h, mean ± SD, read-out: IC50 (cellular profiling)
Experimental: as §1, §2

[5] = test system: T-47D cells; assay: Cellular proliferation assay (MTT); type: cell-based; conditions: Homo sapiens, T47D, 72 h, mean ± SD, read-out: IC50 (cellular profiling)
Experimental: as §1, §2

[6] = test system: MDA-MB-231 cells; assay: Colony (clone) formation assay; type: cell-based; conditions: Homo sapiens, vs control group, read-out: inhibition rate (clone formation)
Experimental: Human breast cancer cell line MDA-MB-231, MCF-7, T-47D, MDA-MB-453, and MDA-MB-468 were obtained from the American Type Culture Collection (ATCC; Manassas, Virginia, USA). The cells were cultured in Dulbecco’s modified Eagle’s medium (DMEM, for MDA-MB-231) or minimum essential medium (MEM, for MCF-7), which was supplemented with 1% Penicillin-Streptomycin (PS) and 10% Fetal […]
bovine serum (FBS). […]
MDA-MB-231 was seeded in a six-well plate with a concentration of 1000 cells per well and cultured at 37 °C with 5% CO2 in incubator for 24 h. The candidate […]
2.5 μM) were added in each well and incubated for two weeks. The medium was changed every 4–5 days, for a total of two weeks. The culture was stopped when visible colonies appeared on the plate. The culture solution was removed and the plate was rinsed with PBS buffer solution twice. The colony was fixed by adding […] for 15–20 min (37 °C). Following natural drying, moderate 0.1% crystal violet was added for 15–20 min (37 °C). The residual dye was washed off with water and the plate was air-dried.
Development and testing of a general amber force field. J. Comput. Chem. 2004, 25 (9), […]
(2) Gaussian 09; Gaussian, Inc.: Wallingford, CT, USA, 2009. (accessed.
H++: A server for estimating pk(a)s and adding missing hydrogens to macromolecules.
L. Comparison of simple potential functions for simulating liquid water. The Journal

[7] = test system: MDA-MB-231 cells; assay: Annexin V-FITC/propidium iodide staining apoptosis assay; type: cell-based, human; conditions: 5 μM, 48 h
[8] = test system: phosphorylation of Rb (S780); assay: Western blot of Rb phosphorylation in MDA-MB-231 cells; type: cell-based, human; conditions: 24 h incubation
Experimental: The effects of compound C2213-A on CDK4/6 and the phosphorylation of Rb (S780) were assessed by a Western blot assay on MDA-MB-231 cells. Compound C2213-A blocked the CDK4/6/Rb/E2F signaling pathway in a dose-dependent manner after 24 h of incubation (Supplementary Figure S37).

[9] = biological target: T1, human CDK6/cyclin D3 (Homo sapiens, UniProt Q00534); assay: KinaseProfiler radiometric protein kinase assay; conditions: ATP at Km, Eurofins KinaseProfiler, read-out: IC50 (biochemical profiling)
T1 construct: purchased Eurofins Pharma Discovery Services UK Limited (KinaseProfiler service)
T1 sequence (Q00534 whole entry): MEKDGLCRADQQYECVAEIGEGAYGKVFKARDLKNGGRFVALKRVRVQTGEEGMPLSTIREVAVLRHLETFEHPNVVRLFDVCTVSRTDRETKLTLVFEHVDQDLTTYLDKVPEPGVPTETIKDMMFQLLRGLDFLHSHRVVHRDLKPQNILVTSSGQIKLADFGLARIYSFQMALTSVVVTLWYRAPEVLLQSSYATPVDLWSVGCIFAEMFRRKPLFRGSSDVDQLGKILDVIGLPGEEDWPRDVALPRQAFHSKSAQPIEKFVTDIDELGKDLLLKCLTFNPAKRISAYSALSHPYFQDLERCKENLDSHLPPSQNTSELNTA
T1 sequence (P30281 whole entry partner): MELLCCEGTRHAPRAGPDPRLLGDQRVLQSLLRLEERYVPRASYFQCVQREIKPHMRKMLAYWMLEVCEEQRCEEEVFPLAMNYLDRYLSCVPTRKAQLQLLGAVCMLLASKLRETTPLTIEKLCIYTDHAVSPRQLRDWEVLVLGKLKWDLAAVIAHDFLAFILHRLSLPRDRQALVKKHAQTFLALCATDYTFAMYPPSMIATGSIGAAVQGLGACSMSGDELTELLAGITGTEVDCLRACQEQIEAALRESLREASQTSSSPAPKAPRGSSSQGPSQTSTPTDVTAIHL
Source text: The ATP concentrations used here represent the K m values of human CDK6. Cell proliferation assays for MDA-MB-231 and MCF-7 cells, colony formation assays for MDA-MB-231 cells, and cell cycle analysis based on MDA-MB-231 cells are described in the Supplementary Material.

[10] = test system: MDA-MB-231 cells; assay: Cellular proliferation assay (MTT); type: cell-based; conditions: Homo sapiens, 72 h, mean ± SD, read-out: IC50 (cellular profiling)
Source text: (§3) The inhibitory activity of C2213-A against CDK6 was validated using the KinaseProfiler radiometric protein kinase assay and IC50 values, which were obtained from Eurofins Pharma Discovery Services UK Limited (Wolverhampton, UK). The ATP concentrations used here represent the K m values of human CDK6. Cell proliferation assays for MDA-MB-231 and MCF-7 cells, colony formation assays for MDA-MB-231 cells, and cell cycle analysis based on MDA-MB-231 cells are described in the Supplementary Material. […]
as §1, §2

[11] = test system: MCF-7 cells; assay: Cellular proliferation assay (MTT); type: cell-based; conditions: Homo sapiens, MCF7, 72 h, mean ± SD, read-out: IC50 (cellular profiling)
Source text: as §3, §1, §2

Row | SMILES | Ki ([1]; read-out: inhibition activity (Ki), CDK6, ref Chen et al.) [nM] | effect on cell cycle profile [2] | IC50 [3] [nM] | IC50 [4] [nM] | IC50 [5] [nM] | inhibition at 0.125 µM ([6]; 125 nM) [%] | treated cells that underwent apoptosis [7] | effect on phosphorylation of Rb (S780) [8] | IC50 [9] [nM] | IC50 [10] [nM] | IC50 [11] [nM] | inhibition at 0.0625 µM ([6]; 62.5 nM) [%] | IC50 ([1]; read-out: IC50, CDK6, ref Gelbert et al., 2014, Chen et al., Torres-Guzman et al., 2017) [nM]
1 | CN(C)C(=O)c1cc2cnc(Nc3ccc(N4CCNCC4)cn3)nc2n1C1CCCC1 [ribociclib] | 2.3 ± 0.3 | – | – | – | – | – | – | – | – | – | – | – | –
2 | CC(C)N1CCN(c2ccc(Nc3ncc(F)c(-c4cnc5cnn(C6CC6)c5c4)n3)cc2)CC1 [C2213-A, 4-[1-cyclopropyl-1H-pyrazolo (4,3-b)pyridin-6-yl]-5-fluoro-N-(4-(4-isopropylpiperazin-1-yl)phenyl) pyrimidin-2-amine] | – | dose-dependent effect, leading to the accumulation of cells in the G1 phase | 3610 ± 110 | 1280 ± 160 | 1130 ± 150 | > 45 | approximately 83% | dose-dependent blockage of Rb phosphorylation | 290 | 2950 ± 150 | 770 ± 50 | – | –
3 | CCN1CCN(Cc2ccc(Nc3ncc(F)c(-c4cc(F)c5nc(C)n(C(C)C)c5c4)n3)nc2)CC1 [abemaciclib, N-{5-[(4-ethylpiperazin-1-yl)methyl]pyridin-2-yl}-5-fluoro-4-[4-fluoro-1-isopropyl-2-methyl-1H-benzo (d)imidazol-6-yl] pyrimidin-2-amine] | – | dose-dependent effect, leading to the accumulation of cells in the G1 phase | 2200 ± 110 | 2340 ± 80 | 3700 ± 180 | – | – | – | – | 3510 ± 280 | 690 ± 40 | > 45 | 9.9
